# Data reported in US20260022142A1, “MACROCYCLIC IMMUNOMODULATORS” (Bristol-Myers Squibb Company, priority 2022, published 2026).
# Numbered stars: 1 amine (or outer) side, 2 acyl side, 3 side chain; on linkers, the order of the positions; unused ones are H or OH. Bridge positions count the residues as written; N and C are the ends. Square brackets hold non-standard residues; d marks the D form. Peptide text beside a SMILES is read from it. * marks the point of attachment. ξ: configuration not given here. Phe(3-CF3) = N[C@@H](Cc1cccc(C(F)(F)F)c1)C(=O)O; Phe(4-COOH) = N[C@@H](Cc1ccc(C(=O)O)cc1)C(=O)O; Bip = N[C@@H](Cc1ccc(-c2ccccc2)cc1)C(=O)O; X10 = O=C([C@H](Cc1cc[nH]c1)N[*:1])[*:2]; Phe(3-Me) = Cc1cccc(C[C@H](N)C(=O)O)c1; Phe(4-F) = N[C@@H](Cc1ccc(F)cc1)C(=O)O; ξBip = NC(Cc1ccc(-c2ccccc2)cc1)C(=O)O; NH(CH2)12COOH = O=C(O)CCCCCCCCCCCCN*; Val(3-OH) = CC(C)(O)[C@H](N)C(=O)O; hArg = N=C(N)NCCCC[C@H](N)C(=O)O; 4Pal = N[C@@H](Cc1ccncc1)C(=O)O; 2Thi = N[C@@H](Cc1cccs1)C(=O)O; Cha = N[C@@H](CC1CCCCC1)C(=O)O; Cit = NC(=O)NCCC[C@H](N)C(=O)O; Thr(3ξ) = CC(O)[C@H](N)C(=O)O; Carboxymethyl = O=C(O)C*; Orn = NCCC[C@H](N)C(=O)O; Aun = NCCCCCCCCCCC(=O)O; Dab = NCC[C@H](N)C(=O)O; Abu = CC[C@H](N)C(=O)O; Dap = NC[C@H](N)C(=O)O; ξD = NC(CC(=O)O)C(=O)O; AEEA = NCCOCCOCC(=O)O
# Biological target: T1, PD-1/PD-L1 interaction (PE-labeled human PD-L1-Ig binding to Jurkat cell line over-expressing human PD-1) (Homo sapiens, UniProt Q15116)
# T1 construct: expressed in transfected cells; host or cells: Jurkat
# Assay: Jurkat-PD-1 Cell Binding High-Content Screening Assay (CBA)
# Format: cell-based
# Conditions: Jurkat cell line over-expressing human PD-1; PE-labeled PD-L1-Ig 20 nM final; read-out: Jurkat hPD1-PDL1 IC50
# Procedure, shortened: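 Human PD-L1-Ig carrying a covalent PE label on its Ig tag serves as the probe, applied at 20 nM final to compound-treated (2 h, 37° C) Jurkat-hPD-1 cells in medium with 10% fetal calf serum. After one hour, fixation and nuclear staining precede high-content image analysis.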
# T1 sequence (Q15116 25-288): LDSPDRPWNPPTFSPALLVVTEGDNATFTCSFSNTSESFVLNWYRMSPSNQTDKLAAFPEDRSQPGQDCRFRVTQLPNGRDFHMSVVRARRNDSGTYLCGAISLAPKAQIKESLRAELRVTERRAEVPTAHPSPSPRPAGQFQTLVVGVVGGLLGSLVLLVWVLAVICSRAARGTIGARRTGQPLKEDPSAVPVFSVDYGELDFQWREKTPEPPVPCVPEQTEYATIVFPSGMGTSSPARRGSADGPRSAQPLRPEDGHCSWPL
row,Structure (SMILES),IC50
1,CC(C)C[C@H]1NC(=O)[C@H](CCCN)NC(=O)[C@H](Cc2ccc(O)cc2)NC(=O)[C@H](Cc2ccc(-c3ccccc3)cc2)NC(=O)[C@H](Cc2ccc(O)cc2)NC(=O)[C@H](Cc2c[nH]c3ccccc23)NC(=O)[C@H](CC(=O)O)NC(=O)[C@H](Cc2ccc(OCC(=O)O)cc2)NC(=O)[C@H](C(C)O)NC(=O)CSC[C@@H](C(=O)N[C@@H](CCN)C(=O)NCCCCCCCCCCC(=O)O)NC(=O)[C@H](CN)NC(=O)[C@H](C(C)O)NC(=O)[C@H](CC2CCCCC2)NC(=O)[C@H](CCN)NC1=O (stereo partly drawn) [Compound 3669] ({CH2CO}-[Thr(3ξ)]Y(Carboxymethyl)DWY[Bip]Y[Orn][dL][Dab][Cha][Thr(3ξ)][Dap]C[Dab][Aun]-OH; thioether N-14),152 nM
2,Cc1cccc(C[C@@H]2NC(=O)[C@H](CC(=O)O)NC(=O)[C@H](Cc3ccc(OCC(=O)O)cc3)NC(=O)[C@H](Cc3ccncc3)NC(=O)CSC[C@@H](C(=O)N[C@@H](CCN)C(=O)NCCCCCCCCCCC(=O)O)NC(=O)[C@H](CO)NC(=O)[C@H](C(C)(C)O)NC(=O)[C@H](CC3CCCCC3)NC(=O)[C@H](Cc3c[nH]cn3)NC(=O)[C@@H](CC(C)C)NC(=O)[C@H](CCCN)NC(=O)[C@H](Cc3ccc(OCC(=O)O)cc3)NC(=O)[C@H](Cc3ccc(-c4ccccc4)cc3)NC(=O)[C@H](Cc3ccc(F)cc3)NC2=O)c1 [Compound 3733] ({CH2CO}-[4Pal]Y(Carboxymethyl)D[Phe(3-Me)][Phe(4-F)][Bip]Y(Carboxymethyl)[Orn][dL]H[Cha][Val(3-OH)]SC[Dab][Aun]-OH; thioether N-14),115 nM
3,CC(C)C[C@H]1NC(=O)[C@H](CCCN)NC(=O)[C@H](C(C)C)NC(=O)[C@H](Cc2ccc(-c3ccccc3)cc2)NC(=O)[C@H](C(C)C)NC(=O)[C@H](Cc2c[nH]c3ccccc23)NC(=O)[C@H](CC(=O)O)NC(=O)[C@H](Cc2ccc(OCC(=O)O)cc2)NC(=O)[C@H](CN)NC(=O)CSC[C@@H](C(=O)N[C@@H](CCCCN)C(=O)NCCCCCCCCCCC(=O)O)NC(=O)[C@H](CN)NC(=O)[C@H](C(C)C)NC(=O)[C@H](CC2CCCCC2)NC(=O)[C@H](Cc2cc[nH]c2)NC1=O [Compound 2801] ({CH2CO}-[Dap]Y(Carboxymethyl)DWV[Bip]V[Orn][dL][X10][Cha]V[Dap]CK[Aun]-OH; thioether N-14),327 nM
4,Cc1cccc(C[C@@H]2NC(=O)[C@H](CC(=O)O)NC(=O)[C@H](Cc3ccc(OCC(=O)O)cc3)NC(=O)[C@H](CCCCNC(=N)N)NC(=O)CSC[C@@H](C(=O)N[C@@H](CCN)C(=O)NCCOCCOCC(=O)NCCCCCCCCCCC(=O)O)NC(=O)[C@H](CCCN)NC(=O)[C@H](C(C)C)NC(=O)[C@H](CC3CCCCC3)NC(=O)[C@H](CCN)NC(=O)[C@@H](CC(C)C)NC(=O)[C@H](CCCN)NC(=O)[C@H](C(C)C)NC(=O)[C@H](Cc3ccc(-c4ccccc4)cc3)NC(=O)[C@H](C(C)C)NC2=O)c1 [Compound 3245] ({CH2CO}-[hArg]Y(Carboxymethyl)D[Phe(3-Me)]V[Bip]V[Orn][dL][Dab][Cha]V[Orn]C[Dab][AEEA][Aun]-OH; thioether N-14),11 nM
5,CC(C)C[C@H]1NC(=O)[C@H](CCN)NC(=O)[C@H](C(C)C)NC(=O)[C@H](Cc2ccc(-c3ccccc3)cc2)NC(=O)[C@H](C(C)C)NC(=O)[C@H](Cc2c[nH]c3ccccc23)NC(=O)[C@H](CC(=O)O)NC(=O)[C@H](Cc2ccc(OCC(=O)O)cc2)NC(=O)[C@H](CCCCNC(=N)N)NC(=O)CSC[C@@H](C(=O)NCCOCCOCC(=O)N[C@@H](CCCN)C(=O)NCCCCCCCCCCC(=O)O)NC(=O)[C@H](C(C)O)NC(=O)[C@H](C(C)C)NC(=O)[C@H](CC2CCCCC2)NC(=O)[C@H](CCN)NC1=O (stereo partly drawn) [Compound 3212] ({CH2CO}-[hArg]Y(Carboxymethyl)DWV[Bip]V[Dab][dL][Dab][Cha]V[Thr(3ξ)]C[AEEA][Orn][Aun]-OH; thioether N-14),13.7 nM
6,CC[C@H](C)[C@@H]1NC(=O)[C@H](Cc2ccc(-c3ccccc3)cc2)NC(=O)[C@H](C(C)C)NC(=O)[C@H](Cc2c[nH]c3ccccc23)NC(=O)[C@H](CC(=O)O)NC(=O)[C@H](Cc2ccc(OCC(=O)O)cc2)NC(=O)[C@H](CN)NC(=O)CSC[C@@H](C(=O)NCCOCCOCC(=O)N[C@@H](CCN)C(=O)NCCCCCCCCCCC(=O)O)NC(=O)[C@H](CCCCN)NC(=O)[C@H](C(C)C)NC(=O)[C@H](CC2CCCCC2)NC(=O)[C@H](CCN)NC(=O)[C@@H](CC(C)C)NC(=O)[C@H](CCCN)NC1=O [Compound 2626] ({CH2CO}-[Dap]Y(Carboxymethyl)DWV[Bip]I[Orn][dL][Dab][Cha]VKC[AEEA][Dab][Aun]-OH; thioether N-14),11.9 nM
7,CC(C)C[C@@H]1NC(=O)[C@H](Cc2c[nH]c3ccccc23)NC(=O)[C@H](CC(=O)O)NC(=O)[C@H](Cc2ccc(OCC(=O)O)cc2)NC(=O)[C@H](CN)NC(=O)CSC[C@@H](C(=O)N[C@@H](CCN)C(=O)NCCCCCCCCCCC(=O)O)NC(=O)[C@H](Cc2cnc[nH]2)NC(=O)[C@H](C(C)C)NC(=O)[C@H](CC2CCCCC2)NC(=O)[C@H](CCN)NC(=O)[C@@H](CC(C)C)NC(=O)[C@H](CCCN)NC(=O)[C@H](C(C)C)NC(=O)[C@H](Cc2ccc(-c3ccccc3)cc2)NC1=O [Compound 3688] ({CH2CO}-[Dap]Y(Carboxymethyl)DWL[Bip]V[Orn][dL][Dab][Cha]VHC[Dab][Aun]-OH; thioether N-14),17.3 nM

# Stronger by IC50, values ahead:
row,IC50,Structure (SMILES)
1,9.4 nM,Cc1cccc(C[C@@H]2NC(=O)[C@H](CC(=O)O)NC(=O)[C@H](Cc3ccc(OCC(=O)O)cc3)NC(=O)[C@H](Cc3ccncc3)NC(=O)CSC[C@@H](C(=O)N[C@@H](CCN)C(=O)NCCCCCCCCCCC(=O)O)NC(=O)[C@H](CO)NC(=O)[C@H](C(C)(C)O)NC(=O)[C@H](CC3CCCCC3)NC(=O)[C@H](CCN)NC(=O)[C@@H](CC(C)C)NC(=O)[C@H](CCCN)NC(=O)[C@H](Cc3ccc(OCC(=O)O)cc3)NC(=O)[C@H](Cc3ccc(-c4ccccc4)cc3)NC(=O)[C@H](Cc3cccs3)NC2=O)c1 [Compound 2188] ({CH2CO}-[4Pal]Y(Carboxymethyl)D[Phe(3-Me)][2Thi][Bip]Y(Carboxymethyl)[Orn][dL][Dab][Cha][Val(3-OH)]SC[Dab][Aun]-OH; thioether N-14)
2,10.3 nM,Cc1cccc(C[C@@H]2NC(=O)C(CC(=O)O)NC(=O)[C@H](Cc3ccc(OCC(=O)O)cc3)NC(=O)[C@H](CN)NC(=O)CSC[C@@H](C(=O)NCCOCCOCC(=O)N[C@@H](CCCCN)C(=O)NCCCCCCCCCCC(=O)O)NC(=O)[C@H]([C@@H](C)O)NC(=O)[C@H](C(C)C)NC(=O)[C@H](CC3CCCCC3)NC(=O)[C@H](CCN)NC(=O)[C@@H](CC(C)C)NC(=O)[C@H](CCCN)NC(=O)[C@H](CCCNC(N)=O)NC(=O)C(Cc3ccc(-c4ccccc4)cc3)NC(=O)[C@H](C(C)C)NC2=O)c1 (stereo partly drawn) [Compound 1179] ({CH2CO}-[Dap]Y(Carboxymethyl)[ξD][Phe(3-Me)]V[ξBip][Cit][Orn][dL][Dab][Cha]VTC[AEEA]K[Aun]-OH; thioether N-14)
3,10.4 nM,Cc1cccc(C[C@@H]2NC(=O)[C@H](CC(=O)O)NC(=O)[C@H](Cc3ccc(OCC(=O)O)cc3)NC(=O)[C@H](CN)NC(=O)CSC[C@@H](C(=O)N[C@@H](CCN)C(=O)NCCOCCOCC(=O)NCCCCCCCCCCC(=O)O)NC(=O)[C@H](CCCN)NC(=O)[C@H](C(C)C)NC(=O)[C@H](CC3CCCCC3)NC(=O)[C@H](CCN)NC(=O)[C@@H](CC(C)C)NC(=O)[C@H](CCCN)NC(=O)[C@H](Cc3ccc(O)cc3)NC(=O)[C@H](Cc3ccc(-c4ccccc4)cc3)NC(=O)[C@H](Cc3ccc(O)cc3)NC2=O)c1 [Compound 2576] ({CH2CO}-[Dap]Y(Carboxymethyl)D[Phe(3-Me)]Y[Bip]Y[Orn][dL][Dab][Cha]V[Orn]C[Dab][AEEA][Aun]-OH; thioether N-14)
4,8.1 nM,Cc1cccc(C[C@@H]2NC(=O)[C@H](CC(=O)O)NC(=O)[C@H](Cc3ccc(OCC(=O)O)cc3)NC(=O)[C@H](CCCNC(=N)N)NC(=O)CSC[C@@H](C(=O)N[C@@H](CCN)C(=O)NCCCCCCCCCCC(=O)O)NC(=O)[C@H](CCCNC(N)=O)NC(=O)[C@H](C(C)C)NC(=O)[C@H](CC3CCCCC3)NC(=O)[C@H](CCN)NC(=O)[C@@H](CC(C)C)NC(=O)[C@H](CCN)NC(=O)[C@H](C(C)C)NC(=O)[C@H](Cc3ccc(-c4ccccc4)cc3)NC(=O)[C@H](C(C)C)NC2=O)c1 [Compound 3360] ({CH2CO}-RY(Carboxymethyl)D[Phe(3-Me)]V[Bip]V[Dab][dL][Dab][Cha]V[Cit]C[Dab][Aun]-OH; thioether N-14)
5,4 nM,CC(C)C[C@H]1NC(=O)[C@H](Cc2cnc[nH]2)NC(=O)[C@H](Cc2ccc(OCC(=O)O)cc2)NC(=O)[C@H](Cc2ccc(-c3ccccc3)cc2)NC(=O)[C@H](Cc2ccc(C(=O)O)cc2)NC(=O)[C@H](Cc2cccc(C(F)(F)F)c2)NC(=O)[C@H](CC(=O)O)NC(=O)[C@H](Cc2ccc(OCC(=O)O)cc2)NC(=O)[C@H](C(C)O)NC(=O)CSC[C@@H](C(=O)N[C@@H](CCN)C(=O)NCCCCCCCCCCC(=O)O)NC(=O)[C@H](C(C)O)NC(=O)[C@H](C(C)C)NC(=O)[C@H](CC2CCCCC2)NC(=O)[C@H](CCN)NC1=O (stereo partly drawn) [Compound 3821] ({CH2CO}-[Thr(3ξ)]Y(Carboxymethyl)D[Phe(3-CF3)][Phe(4-COOH)][Bip]Y(Carboxymethyl)H[dL][Dab][Cha]V[Thr(3ξ)]C[Dab][Aun]-OH; thioether N-14)
6,3.9 nM,CC[C@@H]1NC(=O)CSC[C@@H](C(=O)N[C@@H](CCN)C(=O)NCCOCCOCC(=O)N[C@@H](CCC(=O)O)C(=O)NCCCCCCCCCCCCC(=O)O)NC(=O)[C@H](CO)NC(=O)[C@H](C(C)(C)O)NC(=O)[C@H](CC2CCCCC2)NC(=O)[C@H](CCN)NC(=O)[C@@H](CC(C)C)NC(=O)[C@H](CCCN)NC(=O)[C@H](Cc2ccc(OCC(=O)O)cc2)NC(=O)[C@H](Cc2ccc(-c3ccccc3)cc2)NC(=O)[C@H](Cc2ccc(OCC(=O)O)cc2)NC(=O)[C@H](Cc2cccc(C)c2)NC(=O)[C@H](CC(=O)O)NC(=O)[C@H](Cc2ccc(OCC(=O)O)cc2)NC1=O [Compound 3811] ({CH2CO}-[Abu]Y(Carboxymethyl)D[Phe(3-Me)]Y(Carboxymethyl)[Bip]Y(Carboxymethyl)[Orn][dL][Dab][Cha][Val(3-OH)]SC[Dab][AEEA]E-{NH(CH2)12COOH}; thioether N-14)
